± gives the expanded uncertainty stated by the source.

The conditions of this data set: Crystal; visual observation.
As to `O=C(O)CCCCC(=O)O` [1,6-hexanedioic acid], the Normal melting temperature was found to be 153.20 ± 0.5 °C.

On to `Cc1ccc(C(=O)O)cc1` [4-methylbenzoic acid], for which the Normal melting temperature came to 179.60 ± 0.5 °C.

As to `O=C(O)c1ccccc1` [benzoic acid], the Normal melting temperature amounted to 122.4 ± 0.5 °C. The same measure for `c1ccc2ccccc2c1` [naphthalene]: 80.26 ± 0.5 °C; for `CCCCCCCCCCCCCCCCCC(=O)O` [octadecanoic acid]: 69.80 ± 0.5 °C; for `c1ccc2c(c1)ccc1ccccc12` [phenanthrene]: 99.24 ± 0.5 °C.

The values above are taken from the NIST ThermoML archive (doi:10.1016/j.fluid.2015.12.021).
